Test results published in patent US8952024B2, “Herbicidal pyrimidone derivatives” (E I du Pont de Nemours and Company, priority 2009, dated 2015).

Key:
Format in all cases: in vivo
rice (Oryza sativa) = test: Test B flooded paddy test; conditions: for Plant response rating, Flood, Rice: 250 g ai/ha, flooded paddy test, visual rating on 0 to 100 scale (0 no effect, 100 complete control) after 13 to 15 days; for Plant response rating, Rice: Flood (flooded paddy test), 13 to 15 days; for Rice plant response rating: Flood, 31 g ai/ha, scale 0 to 100 (0 no effect, 100 complete control)
Outline: (§1)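 Greenhouse-held for 13 to 15 days, treated pots were compared visually with controls and scored 0–100 (0, no effect). Treatment had been made into paddy water kept at 3 cm above the soil, with plants at the 2-leaf stage.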

[1] = tested on: umbrella sedge (Cyperus difformis); test: Test B flooded paddy test; conditions: for Plant response rating, Flood, Sedge, Umbrella: 250 g ai/ha, flooded paddy test, visual rating on 0 to 100 scale (0 no effect, 100 complete control) after 13 to 15 days; for Plant response rating, Sedge, Umbrella: Flood (flooded paddy test), 13 to 15 days; for Sedge, Umbrella plant response rating: Flood, 31 g ai/ha, scale 0 to 100 (0 no effect, 100 complete control)
Outline: as §1

[2] = tested on: ducksalad (Heteranthera limosa); test: Test B flooded paddy test; conditions: for Plant response rating, Flood, Ducksalad: 250 g ai/ha, flooded paddy test, visual rating on 0 to 100 scale (0 no effect, 100 complete control) after 13 to 15 days; for Plant response rating, Ducksalad: Flood (flooded paddy test), 13 to 15 days; for Ducksalad plant response rating: Flood, 31 g ai/ha, scale 0 to 100 (0 no effect, 100 complete control)
Outline: as §1

[3] = tested on: barnyardgrass (Echinochloa crus-galli); test: Test B flooded paddy test; conditions: for Plant response rating, Flood, Barnyardgrass: 250 g ai/ha, flooded paddy test, visual rating on 0 to 100 scale (0 no effect, 100 complete control) after 13 to 15 days; for Plant response rating, Barnyardgrass: Flood (flooded paddy test), 13 to 15 days; for Barnyardgrass plant response rating: Flood, 31 g ai/ha, scale 0 to 100 (0 no effect, 100 complete control)
Outline: as §1

[4] = tested on: morningglory (Ipomoea coccinea); test: Test B pre-/postemergence plant response; conditions: for Morningglory plant response rating (0 to 100 scale): 62 g ai/ha, 0 is no effect
Outline: (§2)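 Plants treated either at seeding (loam/sand soil) or postemergence at 2 to 18 cm height, using a surfactant-containing non-phytotoxic solvent formulation. Evaluation was visual after 13 to 15 days, 0 to 100 scale relative to controls.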

[5] = tested on: bermudagrass (Cynodon dactylon); test: Test B pre-/postemergence plant response; conditions: for Bermudagrass plant response rating (0 to 100 scale): 62 g ai/ha, 0 is no effect
Outline: as §2

[6] = tested on: windgrass (Apera spica-venti); test: Test B postemergence plant response; conditions: for Windgrass plant response rating (0 to 100 scale): 62 g ai/ha, 0 is no effect
Outline: (§3)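 Plants grown in peat/vermiculite medium were sprayed postemergence at 2–18 cm height (1- to 4-leaf stage). After 13–15 days in the greenhouse, response was rated visually against untreated controls on a 0–100 scale (0 no effect, 100 complete control).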

[7] = tested on: chickweed (Stellaria media); test: Test B postemergence plant response; conditions: for Chickweed plant response rating (0 to 100 scale): 62 g ai/ha, 0 is no effect
Outline: as §3

[8] = tested on: winter barley (Hordeum vulgare); test: Test B postemergence plant response; conditions: for Barley plant response rating (0 to 100 scale): 62 g ai/ha, 0 is no effect
Outline: as §3

[9] = tested on: canarygrass (Phalaris minor); test: Test B postemergence plant response; conditions: for Canarygrass plant response rating (0 to 100 scale): 62 g ai/ha, 0 is no effect
Outline: as §3

[10] = 62 g ai/ha, scale of 0 to 100 where 0 is no effect and 100 is complete control
[11] = 125 g ai/ha, scale 0 to 100, 0 is no effect, 100 is complete control
[12] = 31 g ai/ha, postemergence, scale 0 to 100, 0 is no effect, 100 is complete control
[13] = postemergence, 100 is complete control, 13 to 15 days
[14] = Postemergence, 250 g ai/ha, scale 0 to 100 (0 no effect, 100 complete control)
[15] = Postemergence, 125 g ai/ha, visual rating after 13 to 15 days, scale 0 (no effect) to 100 (complete control)
[16] = Postemergence, 31 g ai/ha, 0 to 100 scale (0 no effect, 100 complete control)
[17] = Postemergence, 125 g ai/ha, scale 0 to 100 (0 no effect, 100 complete control)
[18] = Postemergence, 250 g ai/ha, scale 0 to 100 (0 no effect, 100 complete control), 13 to 15 days

Row | Structure (SMILES) | Plant response rating, Rice (rice (Oryza sativa); [10]) | Plant response rating, Rice (rice (Oryza sativa); [11]) | Rice plant response rating (rice (Oryza sativa)) | Plant response rating, Flood, Sedge, Umbrella [1] | Plant response rating, Sedge, Umbrella [1, 10] | Plant response rating, Sedge, Umbrella [1, 11] | Sedge, Umbrella plant response rating [1] | Plant response rating, Flood, Ducksalad [2] | Plant response rating, Ducksalad [2, 10] | Plant response rating, Ducksalad [2, 11] | Ducksalad plant response rating [2] | Plant response rating, Flood, Barnyardgrass [3] | Plant response rating, Barnyardgrass [3, 10] | Plant response rating, Barnyardgrass [3, 11] | Barnyardgrass plant response rating [3] | Morningglory plant response rating (0 to 100 scale) [4, 13] | Bermudagrass plant response rating (0 to 100 scale) [5, 13] | Windgrass plant response rating (0 to 100 scale) [6, 13] | Chickweed plant response rating (0 to 100 scale) [7, 13] | Barley plant response rating (0 to 100 scale) [8, 13] | other results
1 | CCOCCn1c(-c2ccccc2)ncc(C(=O)C2=C(O)CCCC2=O)c1=O [Compound 96] | 15 | 15 | 10 | 90 | 75 | 85 | 50 | 75 | 0 | 50 | 0 | 85 | 65 | 80 | 60 | 95 | 95 | 10 | 95 | 0 | Plant response rating, Flood, Rice (rice (Oryza sativa)): 15; Plant response rating, Morningglory [4, 12]: 65; Plant response rating, Morningglory [4, 14]: 100; Plant response rating, Bermudagrass [5, 12]: 80; Plant response rating, Bermudagrass [5, 15]: 95; Plant response rating, Bermudagrass [5, 14]: 98; Plant response rating, Windgrass [6, 12]: 5; Plant response rating, Windgrass [6, 14]: 45; Plant response rating, Chickweed [7, 12]: 75; Plant response rating, Chickweed [7, 15]: 98; Plant response rating, Chickweed [7, 14]: 100; Plant response rating, Barley [8, 12]: 0; Plant response rating, Barley [8, 15]: 0; Plant response rating, Barley [8, 14]: 5; Plant response rating, Canarygrass [9, 12]: 0; Canarygrass plant response rating (0 to 100 scale) [9, 13]: 5; Plant response rating, Canarygrass [9, 15]: 30; Plant response rating, Canarygrass [9, 14]: 45
2 | O=C1CCCC(O)=C1C(=O)c1cnc(-c2ccccc2)n(C2CCOCC2)c1=O [Compound 129] | 0 | 0 | 0 | 60 | 0 | 60 | 0 | 100 | 90 | 90 | 0 | 60 | 0 | 10 | 0 | 90 | 80 | 60 | 85 | 0 | Plant response rating, Flood, Rice (rice (Oryza sativa)): 30; Plant response rating, Morningglory [4, 16]: 90; Plant response rating, Morningglory [4, 17]: 90; Plant response rating, Morningglory [4, 18]: 90; Plant response rating, Bermudagrass [5, 16]: 80; Plant response rating, Bermudagrass [5, 17]: 95; Plant response rating, Bermudagrass [5, 18]: 98; Plant response rating, Windgrass [6, 16]: 45; Plant response rating, Windgrass [6, 17]: 80; Plant response rating, Windgrass [6, 18]: 85; Plant response rating, Chickweed [7, 16]: 85; Plant response rating, Chickweed [7, 17]: 90; Plant response rating, Chickweed [7, 18]: 100; Plant response rating, Barley [8, 16]: 0; Plant response rating, Barley [8, 17]: 0; Plant response rating, Barley [8, 18]: 0; Canarygrass plant response rating (0 to 100 scale) [9, 13]: 0; Plant response rating, Canarygrass [9, 16]: 0; Plant response rating, Canarygrass [9, 17]: 0; Plant response rating, Canarygrass [9, 18]: 0
3 | CCCn1c(-c2cccc(OC)c2)ncc(C(=O)C2=C(O)CCCC2=O)c1=O [Compound 100] | 30 | 35 | 0 | 85 | 75 | 80 | 40 | 85 | 75 | 85 | 35 | 75 | 45 | 60 | 20 | 100 | 70 | 40 | 75 | 20 | Plant response rating, Morningglory [4, 12]: 60; Plant response rating, Morningglory [4, 17]: 100; Plant response rating, Morningglory [4, 14]: 100; Plant response rating, Bermudagrass [5, 12]: 70; Plant response rating, Bermudagrass [5, 17]: 75; Plant response rating, Bermudagrass [5, 14]: 85; Plant response rating, Windgrass [6, 17]: 45; Plant response rating, Chickweed [7, 12]: 75; Plant response rating, Chickweed [7, 17]: 95; Plant response rating, Chickweed [7, 14]: 100; Plant response rating, Barley [8, 12]: 5; Plant response rating, Barley [8, 17]: 30; Plant response rating, Barley [8, 14]: 50; Plant response rating, Canarygrass [9, 12]: 0; Canarygrass plant response rating (0 to 100 scale) [9, 13]: 5; Plant response rating, Canarygrass [9, 17]: 5; Plant response rating, Canarygrass [9, 14]: 10
